In brackets after ≈: the same amount, converted by molar mass.
How the values were obtained:
Pseudomonas aeruginosa [1] = experiment: Antibacterial activity against Pseudomonas aeruginosa ATCC 15442; assay type: functional
[2] = Selectivity ratio of MIC for cytotoxicity against human HL-60 cells to MIC for antitrypanosomal activity against bloodstream form of Trypanosoma brucei clone 427-221a; assay type: toxicity, cell-based
Escherichia coli [3] = experiment: Antibacterial activity against Escherichia coli NCTC 10538; assay type: functional
[4] = tested on: Staphylococcus epidermidis; experiment: Antibacterial activity against Staphylococcus epidermidis 830/19; assay type: functional
[5] = tested on: Staphylococcus epidermidis; experiment: Antibacterial activity against Staphylococcus epidermidis 848/19; assay type: functional
[6] = tested on: Staphylococcus epidermidis; experiment: Antibacterial activity against Staphylococcus epidermidis 834/19; assay type: functional
[7] = tested on: Staphylococcus epidermidis; experiment: Antibacterial activity against Staphylococcus epidermidis 829/19; assay type: functional
[8] = tested on: Staphylococcus epidermidis; experiment: Antibacterial activity against Staphylococcus epidermidis 851/19; assay type: functional
Staphylococcus aureus [9] = experiment: Antibacterial activity against Staphylococcus aureus ATCC 29213; assay type: functional
[10] = tested on: Staphylococcus epidermidis; experiment: Antibacterial activity against Staphylococcus epidermidis ATCC 12228; assay type: functional
[11] = tested on: Staphylococcus epidermidis; experiment: Antibacterial activity against Staphylococcus epidermidis ATCC 35984; assay type: functional
[12] = tested on: Staphylococcus epidermidis; experiment: Antibacterial activity against Staphylococcus epidermidis 845/19; assay type: functional
Staphylococcus aureus [13] = experiment: Antibacterial activity against Staphylococcus aureus NCTC 4163; assay type: functional
[14] = tested on: Staphylococcus epidermidis; experiment: Antibacterial activity against Staphylococcus epidermidis 840/19; assay type: functional
HL-60 = experiment: (§1) Cytotoxicity against human HL-60 cells assessed as reduction in cell viability measured after 24 hrs by resazurin dye based assay; assay type: toxicity; details: hl-60, 24 h
[15] = as §1; assay type: toxicity; details: HL-60 cells
Staphylococcus aureus [16] = experiment: Antibacterial activity against Staphylococcus aureus ATCC 6538; assay type: functional
[17] = tested on: Staphylococcus epidermidis; experiment: Antibacterial activity against Staphylococcus epidermidis 825/19; assay type: functional
Escherichia coli [18] = experiment: Antibacterial activity against Escherichia coli ATCC 25922; assay type: functional
Staphylococcus aureus [19] = experiment: Antibacterial activity against Staphylococcus aureus ATCC 25923; assay type: functional
[20] = Selectivity ratio of GI50 for cytotoxicity against human HL-60 cells to GI50 for antitrypanosomal activity against bloodstream form of Trypanosoma brucei clone 427-221a; assay type: toxicity, cell-based; details: read-out: RatioGI50
Pseudomonas aeruginosa [21] = experiment: Antibacterial activity against Pseudomonas aeruginosa […]; assay type: functional
Trypanosoma brucei = experiment: Antitrypanosomal activity against bloodstream form of Trypanosoma brucei clone 427-221a measured after 24 hrs by resazurin dye based assay; assay type: functional

SMILES	MIC (Pseudomonas aeruginosa [1])	MIC [4]	MIC [5]	MIC [6]	MIC [7]	MIC [8]	MIC [10]	MIC [11]	MIC [12]	MIC (Staphylococcus aureus [13])	MIC [14]	MIC [17]	MIC (Staphylococcus aureus [19])	MIC (Pseudomonas aeruginosa [21])	GI50 (Trypanosoma brucei)	MIC (Trypanosoma brucei)	selectivity ratio [2]	MIC (HL-60)	GI50 at 24 h [15]	selectivity ratio [20]	other results
CCCNC(=O)OC[C@]1(O)O[C@H]([C@H]2C[C@H](C)[C@H]([C@]3(CO)CC[C@H]([C@]4(C)CC[C@]5(C[C@H](O)[C@@H](C)[C@@H]([C@@H](C)[C@@H](OC)[C@H](C)C(=O)O)O5)O4)O3)O2)[C@@H](C)C[C@H]1C	> 256 µg/mL	4 µg/mL (≈ 5.28 µM)	4 µg/mL (≈ 5.28 µM)	4 µg/mL (≈ 5.28 µM)	4 µg/mL (≈ 5.28 µM)	4 µg/mL (≈ 5.28 µM)	4 µg/mL (≈ 5.28 µM)	8 µg/mL (≈ 10.6 µM)	4 µg/mL (≈ 5.28 µM)	2 µg/mL (≈ 2.64 µM)	4 µg/mL (≈ 5.28 µM)	2 µg/mL (≈ 2.64 µM)	2 µg/mL (≈ 2.64 µM)	> 256 µg/mL	2.94 µM	10 µM (≈ 7.58 µg/mL)	10	100 µM (≈ 75.8 µg/mL)	24.5 µM	8.3	MIC (Escherichia coli [3]): > 256 µg/mL; MIC (Staphylococcus aureus [9]): 4 µg/mL (≈ 5.28 µM); MIC (Staphylococcus aureus [16]): 2 µg/mL (≈ 2.64 µM); MIC (Escherichia coli [18]): > 256 µg/mL
CCNC(=O)OC[C@]1(O)O[C@H]([C@H]2C[C@H](C)[C@H]([C@]3(CO)CC[C@H]([C@]4(C)CC[C@]5(C[C@H](O)[C@@H](C)[C@@H]([C@@H](C)[C@@H](OC)[C@H](C)C(=O)O)O5)O4)O3)O2)[C@@H](C)C[C@H]1C	> 256 µg/mL	8 µg/mL (≈ 10.8 µM)	16 µg/mL (≈ 21.5 µM)	4 µg/mL (≈ 5.38 µM)	8 µg/mL (≈ 10.8 µM)	16 µg/mL (≈ 21.5 µM)	8 µg/mL (≈ 10.8 µM)	16 µg/mL (≈ 21.5 µM)	8 µg/mL (≈ 10.8 µM)	8 µg/mL (≈ 10.8 µM)	8 µg/mL (≈ 10.8 µM)	8 µg/mL (≈ 10.8 µM)	4 µg/mL (≈ 5.38 µM)	> 256 µg/mL	3.05 µM	10 µM (≈ 7.44 µg/mL)	10	100 µM (≈ 74.4 µg/mL)	85.8 µM	28.1	MIC (Escherichia coli [3]): > 256 µg/mL; MIC (Staphylococcus aureus [9]): 8 µg/mL (≈ 10.8 µM); MIC (Staphylococcus aureus [16]): 8 µg/mL (≈ 10.8 µM); MIC (Escherichia coli [18]): > 256 µg/mL
O=C(O)c1cn(C2CC2)c2cc(N3CCNCC3)c(F)cc2c1=O [CIPROFLOXACIN]	< 0.125 µg/mL	64 µg/mL (≈ 193 µM)	≤ 0.125 µg/mL	≤ 0.125 µg/mL	≤ 0.125 µg/mL	≤ 0.125 µg/mL	0.5 µg/mL (≈ 1.51 µM)	0.25 µg/mL (≈ 0.754 µM)	16 µg/mL (≈ 48.3 µM)	0.25 µg/mL (≈ 0.754 µM)	≤ 0.125 µg/mL	4 µg/mL (≈ 12.1 µM)	0.5 µg/mL (≈ 1.51 µM)	< 0.125 µg/mL							

More lines, main results first:

MIC (Pseudomonas aeruginosa [1])	MIC [4]	MIC [5]	MIC [6]	MIC [7]	MIC [8]	MIC [10]	MIC [11]	MIC [12]	MIC (Staphylococcus aureus [13])	MIC [14]	MIC [17]	MIC (Staphylococcus aureus [19])	MIC (Pseudomonas aeruginosa [21])	GI50 (Trypanosoma brucei)	MIC (Trypanosoma brucei)	SMILES	selectivity ratio [2]	MIC (HL-60)	GI50 at 24 h [15]	selectivity ratio [20]	other results
> 256 µg/mL	1 µg/mL (≈ 1.3 µM)	2 µg/mL (≈ 2.59 µM)	2 µg/mL (≈ 2.59 µM)	1 µg/mL (≈ 1.3 µM)	2 µg/mL (≈ 2.59 µM)	1 µg/mL (≈ 1.3 µM)	1 µg/mL (≈ 1.3 µM)	2 µg/mL (≈ 2.59 µM)	1 µg/mL (≈ 1.3 µM)	2 µg/mL (≈ 2.59 µM)	1 µg/mL (≈ 1.3 µM)	1 µg/mL (≈ 1.3 µM)	> 256 µg/mL	0.47 µM	10 µM (≈ 7.72 µg/mL)	CCCCNC(=O)OC[C@]1(O)O[C@H]([C@H]2C[C@H](C)[C@H]([C@]3(CO)CC[C@H]([C@]4(C)CC[C@]5(C[C@H](O)[C@@H](C)[C@@H]([C@@H](C)[C@@H](OC)[C@H](C)C(=O)O)O5)O4)O3)O2)[C@@H](C)C[C@H]1C	19	100 µM (≈ 77.2 µg/mL)	11.4 µM	24.3	MIC (Escherichia coli [3]): > 256 µg/mL; MIC (Staphylococcus aureus [9]): 2 µg/mL (≈ 2.59 µM); MIC (Staphylococcus aureus [16]): 1 µg/mL (≈ 1.3 µM); MIC (Escherichia coli [18]): > 256 µg/mL
														0.05 µM	1 µM (≈ 1.3 µg/mL)	Cc1ccc(C(=O)Nc2ccc(S(=O)(=O)O)c3cc(S(=O)(=O)O)cc(S(=O)(=O)O)c23)cc1NC(=O)c1cccc(NC(=O)Nc2cccc(C(=O)Nc3cc(C(=O)Nc4ccc(S(=O)(=O)O)c5cc(S(=O)(=O)O)cc(S(=O)(=O)O)c45)ccc3C)c2)c1 [SURAMIN]	> 100	> 100 µM	> 100 µM	> 2000	

— ChEMBL document CHEMBL5131424, “Synthesis and evaluation of antibacterial and trypanocidal activity of derivatives of monensin A” (Bioorg Med Chem Lett, 2022)
